Experimental data published in PubChem BioAssay AID2792 (Sanford-Burnham Center for Chemical Genomics, 2010).
Calls of active or inactive are those of the source. How the calls were made is not given here.

The molecules below were run on NF-kappaB luciferase reporter cells, PMA/ionomycin induced (assay: NF-kB luciferase suppression after PMA/ionomycin – cell-based, PMA/ionomycin inducer, set 2, SAR follow-up (AID 2792)).

IC50	SMILES
> 25 µM (inactive)	C/C=C/Cn1c(SCc2ccc(Cl)cc2)nc2c1c(=O)[nH]c(=O)n2C
> 25 µM (inactive)	COCCn1c(SCCCc2ccccc2)nc2c1c(=O)[nH]c(=O)n2C
> 25 µM (inactive)	CC(C)Sc1nc2c(c(=O)[nH]c(=O)n2C)n1Cc1ccccc1
> 25 µM (inactive)	C=CCn1c(SCCCc2ccccc2)nc2c1c(=O)[nH]c(=O)n2C
> 25 µM (inactive)	Nc1nc2ccccc2n1CCOc1ccc(Cl)cc1
> 25 µM (inactive)	CCCCn1c(SCC(=O)Nc2nnc(CC)s2)nc2c1c(=O)n(C)c(=O)n2C
> 25 µM (inactive)	CCCCn1c(SCC(=O)c2ccccc2)nc2c1c(=O)[nH]c(=O)n2C
> 25 µM (inactive)	Cn1c(=O)[nH]c(=O)c2c1nc([N+](=O)[O-])n2Cc1ccccc1
> 25 µM (inactive)	C/C=C/Cn1c(SCc2ccccc2)nc2c1c(=O)[nH]c(=O)n2C
> 25 µM (inactive)	CCCn1c(SCCc2ccccc2)nc2c1c(=O)[nH]c(=O)n2C
> 25 µM (inactive)	CCCCCn1c(SCCc2ccccc2)nc2c1c(=O)[nH]c(=O)n2C
> 25 µM (inactive)	CC(C)n1c(SCCCc2ccccc2)nc2c1c(=O)[nH]c(=O)n2C
> 25 µM (inactive)	C/C=C/Cn1c(SCCCc2ccccc2)nc2c1c(=O)[nH]c(=O)n2C
> 25 µM (inactive)	C/C(Cl)=C\Cn1c(NCCc2ccccc2)nc2c1c(=O)n(C)c(=O)n2C
